The text below walks through data of US7045532B2 (Millennium Pharmaceuticals, Inc., priority 1999, dated 2006).

Read-outs that look alike come from different tables or passages of the source.

One series concerns the target T1, ACE (Sigma, A2580) (Sus scrofa, UniProt F1RRW5).
T1 construct: ACE from porcine kidney; purchased Sigma A2580; host or cells: porcine kidney
T1 sequence (F1RRW5 34-1309): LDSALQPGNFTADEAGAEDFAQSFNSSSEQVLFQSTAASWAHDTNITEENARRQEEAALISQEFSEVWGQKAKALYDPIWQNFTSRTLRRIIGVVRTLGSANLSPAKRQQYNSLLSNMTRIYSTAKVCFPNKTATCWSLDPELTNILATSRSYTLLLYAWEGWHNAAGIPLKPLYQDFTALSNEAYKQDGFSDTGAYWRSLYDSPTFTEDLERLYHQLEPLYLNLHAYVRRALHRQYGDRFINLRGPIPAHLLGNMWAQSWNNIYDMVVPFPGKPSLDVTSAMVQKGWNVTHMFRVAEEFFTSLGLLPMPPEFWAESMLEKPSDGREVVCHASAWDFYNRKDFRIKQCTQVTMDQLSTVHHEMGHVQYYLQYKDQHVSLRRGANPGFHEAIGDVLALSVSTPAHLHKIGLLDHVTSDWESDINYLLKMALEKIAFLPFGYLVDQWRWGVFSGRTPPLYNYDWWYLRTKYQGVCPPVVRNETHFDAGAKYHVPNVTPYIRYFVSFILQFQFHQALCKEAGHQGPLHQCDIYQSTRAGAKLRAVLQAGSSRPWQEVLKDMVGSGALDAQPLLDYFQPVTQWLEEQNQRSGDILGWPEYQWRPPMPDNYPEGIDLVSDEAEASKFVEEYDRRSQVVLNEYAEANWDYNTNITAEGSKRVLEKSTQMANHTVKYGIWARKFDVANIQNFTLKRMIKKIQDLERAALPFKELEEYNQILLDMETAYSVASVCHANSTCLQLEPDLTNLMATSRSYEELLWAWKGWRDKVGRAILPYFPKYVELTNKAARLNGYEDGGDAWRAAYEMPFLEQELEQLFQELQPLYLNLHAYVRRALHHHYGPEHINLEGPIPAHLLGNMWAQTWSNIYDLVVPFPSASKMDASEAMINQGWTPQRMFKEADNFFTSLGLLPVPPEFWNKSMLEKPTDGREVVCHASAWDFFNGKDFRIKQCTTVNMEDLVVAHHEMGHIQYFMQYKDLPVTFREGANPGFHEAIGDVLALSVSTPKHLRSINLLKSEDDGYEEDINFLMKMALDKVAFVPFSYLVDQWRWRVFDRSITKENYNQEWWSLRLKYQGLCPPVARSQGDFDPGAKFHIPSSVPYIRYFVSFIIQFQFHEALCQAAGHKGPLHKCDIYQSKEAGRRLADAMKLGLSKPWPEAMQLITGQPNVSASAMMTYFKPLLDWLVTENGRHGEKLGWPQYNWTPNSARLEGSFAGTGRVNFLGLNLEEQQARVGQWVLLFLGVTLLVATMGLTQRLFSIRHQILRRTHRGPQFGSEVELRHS
The series can be described thus: ACE enzymatic activity assay. It counts as biochemical, porcine. Particulars: Ki class; compounds tested in 5% DMSO, 12 compound concentrations. Summed up:
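Fluorogenic substrate cleavage by 1 nM ACE, read at 320/405 nm after EDTA stop at ~30 min. Reactions at 25 °C, pH 7.5, in HEPES/NaCl/Brij-35 buffer; compounds tested at 12 concentrations in 5% DMSO.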

Series [1] deals with T2, ACE-2 (Homo sapiens, UniProt Q9BYF1).
T2 construct: a stop codon inserted after the serine immediately preceding the transmembrane domain; made in house; host or cells: CHO K1 cells (transient transfection, purified from conditioned medium)
T2 sequence (Q9BYF1 18-740 limits assumed): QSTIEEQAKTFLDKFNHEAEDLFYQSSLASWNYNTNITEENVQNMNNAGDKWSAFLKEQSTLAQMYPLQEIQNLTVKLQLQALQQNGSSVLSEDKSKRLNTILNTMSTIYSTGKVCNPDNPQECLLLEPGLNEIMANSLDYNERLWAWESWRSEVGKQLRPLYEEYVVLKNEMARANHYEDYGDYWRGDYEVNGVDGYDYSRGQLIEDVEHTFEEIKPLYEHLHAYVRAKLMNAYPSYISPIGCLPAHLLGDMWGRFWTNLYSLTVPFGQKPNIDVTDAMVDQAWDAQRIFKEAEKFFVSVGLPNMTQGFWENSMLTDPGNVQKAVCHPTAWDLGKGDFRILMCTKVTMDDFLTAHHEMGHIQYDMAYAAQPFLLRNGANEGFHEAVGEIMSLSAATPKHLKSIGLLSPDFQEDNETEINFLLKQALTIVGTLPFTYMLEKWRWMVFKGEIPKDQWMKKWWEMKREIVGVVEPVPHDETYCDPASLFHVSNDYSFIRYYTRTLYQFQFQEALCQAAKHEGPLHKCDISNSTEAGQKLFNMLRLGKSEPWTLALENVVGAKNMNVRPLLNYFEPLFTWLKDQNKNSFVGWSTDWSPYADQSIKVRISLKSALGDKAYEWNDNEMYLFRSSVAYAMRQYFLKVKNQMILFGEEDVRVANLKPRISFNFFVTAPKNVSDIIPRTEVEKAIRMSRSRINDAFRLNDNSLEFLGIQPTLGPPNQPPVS
The series is described as follows: ACE-2 Competitive Substrate Assay (ACS Assay). It counts as biochemical.

Series [2] has as its target ACE-2 (Rattus norvegicus, UniProt Q5EGZ1). The series is described as follows: ACE-2 Competitive Substrate Assay, rat ACE-2. It counts as biochemical. Particulars: Ki class; compounds tested in 5% DMSO, 12 compound concentrations.
Procedure: ACE-2 enzymatic activity was assayed in microtitre plates by the following procedure. The ACE-2 assay buffer used contained 50 mM MES (Boehringer-Mannheim), 300 mM NaCl (Sigma) and 0.01% Brij-35 (Pierce Chemical Co.) at pH 6.5.
Reactions were mixed and incubated at 25° C.
The activity of the test compounds was investigated using the procedure outlined above. The compounds were tested in 5% DMSO. Enzyme activity was measured at 12 compound concentrations.
The nature of series [3]: Pharmacokinetic profile in BBZDR rats (plasma samples). It counts as in vivo, rat (BBZDR). Particulars: 100 and 300 mg/kg/day oral gavage, 0-24 hours after dosing. The method, then: To determine the pharmacokinetic profile of Compound HE, plasma samples were taken at 0, 0.5, 1, 2, 4, 8, 12, and 24 hours after dosing in both Compound HE dose groups.
A short description of series [4]: Effect on appetite: food consumption in ICR mice. Particulars: 100 mg/kg oral.

ACE-2 (Rattus norvegicus, UniProt Q5EGZ1), sequence (Q5EGZ1 18-805): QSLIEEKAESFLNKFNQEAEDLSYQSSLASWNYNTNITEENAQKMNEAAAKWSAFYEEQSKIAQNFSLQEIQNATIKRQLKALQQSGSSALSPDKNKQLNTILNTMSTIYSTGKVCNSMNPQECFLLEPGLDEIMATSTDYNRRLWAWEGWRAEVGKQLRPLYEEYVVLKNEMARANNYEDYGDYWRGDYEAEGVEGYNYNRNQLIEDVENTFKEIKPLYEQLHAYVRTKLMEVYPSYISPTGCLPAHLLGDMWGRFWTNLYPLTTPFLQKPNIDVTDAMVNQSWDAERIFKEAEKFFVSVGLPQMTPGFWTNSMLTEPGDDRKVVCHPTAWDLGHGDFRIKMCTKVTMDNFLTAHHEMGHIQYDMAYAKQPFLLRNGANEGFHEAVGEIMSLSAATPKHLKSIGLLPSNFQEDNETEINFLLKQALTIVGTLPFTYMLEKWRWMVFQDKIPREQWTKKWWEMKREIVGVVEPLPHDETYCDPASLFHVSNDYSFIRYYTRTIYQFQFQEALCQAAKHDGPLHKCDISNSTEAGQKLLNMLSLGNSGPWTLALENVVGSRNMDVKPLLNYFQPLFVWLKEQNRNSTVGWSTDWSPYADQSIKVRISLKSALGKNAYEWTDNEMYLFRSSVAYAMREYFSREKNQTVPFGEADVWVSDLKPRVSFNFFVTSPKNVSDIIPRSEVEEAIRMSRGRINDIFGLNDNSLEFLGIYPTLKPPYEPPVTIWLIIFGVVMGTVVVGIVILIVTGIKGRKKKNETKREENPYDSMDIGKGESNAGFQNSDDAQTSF

Regarding `CC(C)CC(N[C@@H](Cc1cncn1Cc1cc(Cl)cc(Cl)c1)C(=O)O)C(=O)O` (single isomer, unassigned) [HE, 2-[1-Carboxy-2-[3-(3,5-dichloro-benzyl)-3H-imidazol-4-yl]-ethylamino)4-methyl-pentanoic acid], the Ki at ACE (Sigma, A2580) was 10000 to 50000 nM; at ACE-2 [1] (Ki class, compounds tested in 5% DMSO, 12 compound concentrations, Ki=Kiapp/(1+[S]/Km), read-out: Human ACE-2 Activity), below 100 nM; on ACE-2 [1] (Table 3, very good ACE-2 inhibiting compounds, species not given, read-out: ACE-2 Activity, Ki) it was below 50 nM; at ACE-2 [2], below 100 nM. Moreover, the “systemic exposure (plasma levels)” value in series [3] is reported as “relatively low systemic levels”. Also, the figures for the “reduction of food intake compared to vehicle” value in series [4] (1 hr after administration) and in series [4] (3 hr after administration) were “about 40%” and “about 18%”, respectively.
